Where only a bound is given, the exact number is not on record here.

For experiment [1], the system named is PKARIIβ. Kind of experiment: PKARIIβ Western blot in HepG2 cells, 60 min incubation. The following applies: HepG2, one hour incubation. The format is cell-based, human. As to the method: In a second experiment, human liver cells (HepG2 cell line, American Type Culture Collection, Manassas, Va.) were grown and maintained in Dulbecco's modified eagle's medium (Gibco, Carlsbad, Calif.) containing 10% fetal bovine serum, penicillin (100 I.U./ml), and streptomycin (100 μg/ml). The cells were then incubated for 60 min with 5 mM glucose and various concentrations of enterostatin (0.001, 0.01, 0.03, 0.1, 1.0 μM). After incubation, the cells were lysed and the cytosolic proteins subjected to Western blot analysis for pAMPK and PKARIIβ.
In general terms: Immunoblotting shows a protein as a band on a membrane.

Experiment [2] concerns AMPK. In words: pAMPK Western blot in HepG2 cells, 15 min incubation. The format is cell-based, human. As to the method:
Human liver cells (HepG2 cell line, American Type Culture Collection, Manassas, Va.) were grown and maintained in Dulbecco's modified eagle's medium (Gibco, Carlsbad, Calif.) containing 10% fetal bovine serum, penicillin (100 I.U./ml), and streptomycin (100 μg/ml). The cells were then incubated for 15 min with 5 mM glucose and various concentrations of enterostatin (0.003, 0.01, 0.1, 1, and 3 μM) and/or of its antagonist β-casomorphin (BCM) (0.003, 0.01, 0.1, 1, and 3 μM). After incubation, the cells were lysed and the cytosolic proteins subjected to Western blot analysis for AMPK and pAMPK. The results for pAMPK activity are shown in FIG. 5A (enterostatin) and FIG. 5B (BCM). […] This effect was blocked by the presence of an antibody to the enterostatin receptor (anti F1-ATPase beta subunit).

Experiment [3] deals with AMPK. In words: In vivo AMPK activity, Western blot of liver and hypothalamus. Set-up: species or system mouse. The method, then: A separate set of mice (n=6/group) were fasted overnight (18 hours) before injection with either saline vehicle (0.1 ml) or enterostatin (5 or 25 ug/mouse) intraperitoneally. The mice were sacrificed by cervical dislocation either at 30 min (certain enterostatin-treated groups) or 60 min (both certain enterostatin- and vehicle-treated groups) after the injection. The tissues of liver and hypothalamus were rapidly dissected and frozen in liquid nitrogen. The tissues were stored at −80 C before processing for AMPK activity. For AMPK activity, the tissues were unfrozen, the cells lysed, and the cytosolic proteins subjected to Western blot analysis for AMPK and pAMPK activity.

Experiment [4] concerns the target T1, Neuropeptide Y1 receptors (Homo sapiens, UniProt P25929).
T1 sequence (P25929 1-384): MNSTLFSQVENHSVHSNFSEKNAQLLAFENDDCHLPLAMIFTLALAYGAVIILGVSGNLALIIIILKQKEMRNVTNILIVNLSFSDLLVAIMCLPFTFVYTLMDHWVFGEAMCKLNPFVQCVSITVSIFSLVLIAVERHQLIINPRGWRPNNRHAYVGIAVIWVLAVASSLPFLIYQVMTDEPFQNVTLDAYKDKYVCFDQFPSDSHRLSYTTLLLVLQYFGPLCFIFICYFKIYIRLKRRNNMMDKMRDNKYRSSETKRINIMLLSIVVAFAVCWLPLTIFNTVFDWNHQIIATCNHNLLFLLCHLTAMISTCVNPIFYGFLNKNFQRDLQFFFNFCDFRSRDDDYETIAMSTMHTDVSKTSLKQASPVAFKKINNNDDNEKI
Particulars: cited from earlier work.

For experiment [5], the system named is galanin receptors. The following applies: cited from earlier work.
Experiment [6] deals with T2, cholecystokinin A receptors (Homo sapiens, UniProt P32238).
T2 sequence (P32238 1-428): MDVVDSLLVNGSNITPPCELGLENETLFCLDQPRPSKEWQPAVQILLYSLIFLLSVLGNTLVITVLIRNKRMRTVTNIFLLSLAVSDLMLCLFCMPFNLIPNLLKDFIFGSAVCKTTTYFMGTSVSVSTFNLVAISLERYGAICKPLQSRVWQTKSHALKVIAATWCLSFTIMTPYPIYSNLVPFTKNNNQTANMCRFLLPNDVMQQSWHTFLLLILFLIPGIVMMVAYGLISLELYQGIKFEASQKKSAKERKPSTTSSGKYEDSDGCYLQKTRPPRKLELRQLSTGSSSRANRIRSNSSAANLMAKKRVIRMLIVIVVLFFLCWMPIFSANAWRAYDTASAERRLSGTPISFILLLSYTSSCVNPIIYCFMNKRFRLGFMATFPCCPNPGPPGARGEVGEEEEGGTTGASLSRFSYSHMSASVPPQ
Particulars: cited from earlier work.

For experiment [7], the system named is C57B1/6 male mice. In words: Fasting blood glucose after enterostatin injection. The format is in vivo, mouse. The method, then:
Animals: C57B1/6 male mice were purchased from The Jackson Laboratory (Bar Harbor, Me.) at 6 weeks of age. The mice were initially housed in groups of three in acrylic cages in a room with a 12-hour light/dark cycle and with controlled temperature (22 to 23° C.) and with free access to water. The mice were fed a high fat diet (4.78 kcal/g, 56% energy as fat; Research Diets Inc, Brunswick, N.J.). The composition of the diet has been previously described (15). Body weights were measured three time per week. At 8 weeks of age, the mice were switched to single housing.
Peptide Injections: Enterostatin was dissolved in 0.1 ml saline (0.9% NaCl w/v), and given as a single dose of either 5 μg or 25 μg/mouse. Either enterostatin or saline (control) was injected intraperitoneally. In the experiments involving insulin, insulin (0.75 mU/g body weight) or saline (0.1 ml/10 g body weight; control) was injected intraperitoneally.
Enterostatin Effect on Fasting Blood Glucose. To directly test the effect of enterostatin on blood glucose, mice were fasted for 18 hours, and enterostatin (25 μg/mouse) or 0.1 ml saline vehicle was injected intraperitoneally at zero time. Blood samples were taken from the tail vein at 15, 30, 45 and 60 min after enterostatin injection. The blood samples were assayed for glucose using a glucometer.

Experiment [8] has as its target kappa-opioid receptors (Homo sapiens, UniProt P41145). Particulars: cited from earlier work.

Chain of kappa-opioid receptors (P41145 whole entry): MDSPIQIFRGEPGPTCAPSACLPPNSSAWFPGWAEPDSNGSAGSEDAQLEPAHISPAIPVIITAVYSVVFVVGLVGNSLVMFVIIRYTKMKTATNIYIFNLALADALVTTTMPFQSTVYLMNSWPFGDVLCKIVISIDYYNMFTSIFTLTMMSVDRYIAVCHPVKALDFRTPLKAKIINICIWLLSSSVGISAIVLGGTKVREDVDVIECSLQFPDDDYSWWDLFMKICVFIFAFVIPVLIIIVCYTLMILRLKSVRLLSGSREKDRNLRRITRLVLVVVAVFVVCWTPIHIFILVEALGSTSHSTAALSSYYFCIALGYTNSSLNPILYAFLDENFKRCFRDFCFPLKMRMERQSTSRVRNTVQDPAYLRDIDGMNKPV

Regarding “Enterostatin: aminoterminal pentapeptide of procolipase released when procolipase is converted into colipase (VPDPR; printed: Val-Pro-Asp-Pro-Arg)”, the “Dose of peak increase in PKARIIβ” value in experiment [1] turned out to be 10 nM. Also, the PKARIIβ entry in experiment [1] (5 mM glucose) is “increase in PKARIIβ”. In addition, in experiment [2] (HepG2, 15 min, 5 mM glucose), the “Effect on pAMPK in presence of antibody anti F1-ATPase beta subunit” value was “blocked”. In addition, in experiment [2] (HepG2, 15 min, 5 mM glucose, 0.003-3 μM), the “AMPkinase activity shown by pAMPK” value is “inhibited AMPkinase”. In experiment [2] (HepG2, enterostatin 0.01, 0.1 and 1.0 uM with β-casomorphin), the “β-casomorphin stimulation of pAMPK levels” value is given as “reversed dose-dependently”. In addition, the “Hypothalamic pAMPK” value in experiment [3] (5 or 25 μg/mouse ip) is “unaltered”. In addition, in experiment [3] (5 or 25 μg/mouse ip), the “Total AMPK” value was “unaffected”. Besides, the “Liver pAMPK levels” value in experiment [3] (30 and 60 min after ip injection, even at lower dose (5 μg/mouse)) was “reduced”. The Binding entry in experiment [4], in experiment [5], in experiment [6] and in experiment [8] was “not to bind” each time. Also, in experiment [7] (25 μg/mouse ip, 18 h fasted), the “Blood glucose levels compared to saline control” value is on record as “rapid increase in blood glucose levels”. Moreover, the “Increase in blood glucose versus saline vehicle” value in experiment [7] (25 μg/mouse ip, at 15 and 30 min) is “significantly greater”. Moreover, in experiment [7] (injection into mice), the “Duration of raised glucose levels after injection” value is “remained high for up to an hour after injection”. For the same substance, the “Time to increase in blood glucose levels after injection” value in experiment [7] (injection into mice) was ≤ 15 min.

(Values after patent US20100267629A1, “Enterostatin as Therapeutic Agent for Hypoglycemia” (Board of Supervisors of Louisiana State University and …, priority 2006, published 2010).)
